Measurements from publication PMC4081560 (PLoS ONE, 2014).
“And” between values parts separate entries of the source, which are not always exact repeats. Identical values can stand only once. Like-named read-outs stand apart in the source and are kept apart here. Marks after values point to notes of the source that are not given here.

How the values were obtained:
Design in all cases: species or system DBA/2 mice
Details in all cases: mouse, in vivo
[1] = tested on: oseltamivir-resistant K/2785 virus
[2] = tested on: oseltamivir-resistant K/2785 virus; remark: listed apart in the source
[3] = tested on: oseltamivir-resistant K/2785 virus; remark: listed apart in the source

SMILES | MDD ± SD [1] | Survival/total [1] | Synergism (MacSynergy II) [1] | MDD ± SD (mean day of death prior to 14 dpi) [2] | Survival/total [2] | Viral titers in lungs ± SD [3] | infected mice saved from death [2]
CCC(CC)[C@H](NC(C)=O)[C@@H]1[C@H](O)[C@@H](C(=O)O)C[C@H]1N=C(N)N [Peramivir] | 9.8 ± 1.5 days and 10.1 ± 1.2 days and 10.6 ± 0.9 days | 0/10 (00.0%) and 2/10 (20.0%) and 5/10 (50.0%)* | 0% | 10.1 ± 1.1 days and 10.2 ± 0.4 days and 10.5 ± 2.1 days and 11.0 ± 1.4 days | 0/7 (0.0%) and 1/7 (14.3%) and 5/7 (71.4%)* | 7.34±0.17 log10(PFU/ml/g) and 6.30±0.13 log10(PFU/ml/g) and 7.13±0.09 log10(PFU/ml/g) and 6.29±0.27 log10(PFU/ml/g) and 7.29±0.15 log10(PFU/ml/g) and 6.55±0.14 log10(PFU/ml/g) | –
NC(=O)c1nc(F)cnc1O [Favipiravir, 6-fluoro-3-hydroxy-2-pyrazinecarboxamide] | 10.6 ± 0.9 days and 10.7 ± 0.6 days and 9.4 ± 0.5 days | 5/10 (50.0%)* and 8/10 (80.0%)*** and 3/10 (30.0%) | 0% | 9.8 ± 0.8 days and 10.0 ± 0.0 days and 11 days | 2/7 (28.6%) and 4/7 (57.1%) and 6/7 (85.7%)** and 7/7 (100.0%)*** | 6.95±0.14 log10(PFU/ml/g) and 5.75±0.19 log10(PFU/ml/g) and 7.31±0.01 log10(PFU/ml/g) and 6.88±0.12 log10(PFU/ml/g) | more than 80%
